Results on one molecule are retold here after patent US20250295627A1 (Leibniz-Institut Fuer Neurobiologie, priority 2022, published 2025).

For one experiment, the system named is TBA2.1 and 5×FAD mice. Nature of the experiment: Acute hippocampal slices, CA1-LTP recordings. In kind it is ex vivo, mouse. Particulars: for basal synaptic transmission: bath application. As for the experimental part: The 350 μm thick hippocampal slices were prepared according to a previously described protocol (Grochowska et al., 2017). Briefly, hippocampal slices were incubated in bubbling 95% 02, 5% CO2 ASCF solution for 2 h at 31+/−1° C. Field excitatory postsynaptic potentials (fEPSPs) were measured in stratum radiatum after stimulation of CA1 Schaffer collateral fibers with ACSF glass capillary microelectrodes (3-5 MΩ). fEPSPs were amplified by Extracellular Amplifier (EXT-02B, npi, Germany) and digitized at a sample frequency of 5 kHz by Digidata 1201 plus AD/Da converter (CED, UK). The strength of stimuli was adjusted to 25-35% of the maximum fEPSP slope values. Single stimuli were applied at 0.0333 Hz and averaged every 5 min. Stable baseline recordings were followed by tetanisation with 3×1 s stimulus trains at 100 Hz with a 10 min inter-train interval.
(§1) . For TBA2.1 mice (both sexes), treatment started at the age of 4 weeks. The animals were group housed and force fed for 4 weeks. […] Treatment in 5×FAD male mice started at the age of 12 weeks. Here, animals were single housed right away and given a choice between voluntary and forced feeding. […] During the course of the 7th week of treatment, animals were either subjected to perfusion to obtain their brains for subsequent immunohistochemistry or they were culled to obtained native brains for electrophysiological recordings.

Another experiment relates to TBA2.1 mice. Nature of the experiment: Open-field test. In kind it is in vivo, mouse.
Source text: as §1
Locomotor activity was assessed using the Open-field test, performed in a square arena (45×45×45 cm) made of black Plexiglas and dimly illuminated. The animals were placed in the center of the arena, and were left to explore it for 10 min. The sessions were video recorded, and the distance travelled in the maze as well as the speed was tracked with ANY-maze Software 7.0 (Stoelting Co). Data were analyzed in 1 min bins.

Regarding `O=[N+]([O-])c1ccc([As](=O)(O)O)cc1` [Nitarsone, (4-nitrophenyl) arsonic acid], the basal synaptic transmission entry is “not affected” in the experiment on TBA2.1 and 5×FAD mice (5×FAD mice); “not affected” in the experiment with TBA2.1 and 5×FAD mice (TBA2.1 mice). The “late-phase LTP, fEPSP slope in the last 30 minutes of recordings” value in the experiment with TBA2.1 and 5×FAD mice (slices of Nitarsone-fed 5×FAD mice, postnatal week 19) is on record as “rescued”; in the experiment on TBA2.1 and 5×FAD mice (slices of Nitarsone-fed TBA2.1 mice, postnatal week 11), “rescued”. Moreover, the preference index entry is reported as “does not influence preference index” in the experiment with TBA2.1 mice (FIG. 11 panel L, TBA2.1 mice) and “does not influence preference index” with TBA2.1 mice (FIG. 11 panel N, printed TBA2.1 mice). For the same molecule, the “distance travelled during open field arena exploration” value in the experiment on TBA2.1 mice (FIG. 11 panel M, TBA2.1 mice) is reported as “slightly normalizes increased distance travelled”; with TBA2.1 mice (FIG. 11 panel O, printed TBA2.1 mice), “slightly normalizes increased distance travelled”.
